# Measurements: patent US4312874A, “Antibacterial compounds, processes for their preparation and compositions containing them” (Beecham Group Limited, priority 1979, dated 1982)
# Like-named read-outs stand apart in the source and are kept apart here.
# Key:
# Past. haemolytica PA5 = assay: MIC by agar dilution, veterinary bacteria; conditions: Mannheimia haemolytica, PA5, 24 h
# M. suipneumoniae Str. 11 = assay: in vitro MIC by serial dilution in Friis modified agarose medium; format: cell-based; conditions: Mesomycoplasma hyopneumoniae, Table 3
# Strep. faecalis = assay: MIC by serial dilution in nutrient agar with 5% chocolated horse blood; format: cell-based; conditions: Enterococcus faecalis
# Sarcina lutea 8340 = assay: as above; format: cell-based; conditions: Micrococcus luteus
# M. suipneumoniae JF 435 = assay: in vitro MIC by serial dilution in Friis modified agarose medium; format: cell-based; conditions: Mesomycoplasma hyopneumoniae, JF435; Table 3
# E. coli NCTC 10418 = assay: MIC by agar dilution, veterinary bacteria; conditions: Escherichia coli, NCTC10418, 24 h
# Strep. uberis SPU1 = assay: MIC by agar dilution, veterinary bacteria; conditions: Streptococcus uberis, SPU1, 24 h
# E. coli ESS = assay: MIC by serial dilution in nutrient agar with 5% chocolated horse blood; format: cell-based; conditions: Escherichia coli; Table 1
# Strep. pyogenes C 2761 = assay: as above; format: cell-based; conditions: Streptococcus pyogenes, C2761; Table 1
# M. suipneumoniae LABER = assay: in vitro MIC by serial dilution in Friis modified agarose medium; format: cell-based; conditions: Mesomycoplasma hyopneumoniae; Table 3
# Bacillus subtilis 6633 = assay: MIC by serial dilution in nutrient agar with 5% chocolated horse blood; format: cell-based; conditions: Table 1
# Strep. dysgalactiae SPD1 = assay: MIC by agar dilution, veterinary bacteria; conditions: Streptococcus dysgalactiae, SPD1, 24 h
# M. bovis NCTC 10131 = assay: microbe, parasite or virus in culture; format: cell-based; conditions: NCTC10131
# Strep. pyogenes B 2788 = assay: MIC by serial dilution in nutrient agar with 5% chocolated horse blood; format: cell-based; conditions: Streptococcus pyogenes, B2788; Table 1
# Strep. pyogenes A 64/848 = assay: as above; format: cell-based; conditions: Streptococcus pyogenes, A64/848; Table 1
# P. mirabilis 889 = assay: as above; format: cell-based; conditions: Proteus mirabilis
# [1] = Mouse blood levels of Example 1 following oral and subcutaneous administration; format: in vivo, albino male mice; conditions: read-out: blood conc.; for concentration at 0.5 h: 30 min; for concentration at 1 h: 60 min; for concentration at 2 h: 120 min; for concentration at 4 h: 240 min
# Description: Mouse blood levels of Example 1 following its oral and subcutaneous administration
# Blood levels were assessed in albino male mice (18-22 g CSI). The dose was 50 mg/kg administered in a 10% DMF solution orally and subcutaneously. The mice were killed at intervals up to 4 hours and the blood assayed microbiologically using B. subtilis.
# S.dublin S7 = assay: MIC by agar dilution, veterinary bacteria; conditions: Salmonella enterica, S7, 24 h
# Staph. aureus Oxford = assay: MIC by agar dilution, veterinary bacteria; conditions: Staphylococcus aureus, 24 h
# [2] = Mean serum concentrations in neonatal piglets after intramuscular or oral administration; format: in vivo; conditions: pig; for concentration at 1 h: 60'
# Description: Mean serum concentrations in neonatal piglets of Example 3 after intramuscular or oral administration at 50 mg/kg
# Blood levels were assessed in neonatal piglets (mean bodyweight ca. 3 kg). The dose was 50 mg/kg administered as a 25 mg/ml of 25% aqueous ethanol solution. Doses were given by intramuscular injection and orally by stomach tube. Piglets were bled at intervals up to 24 hr and the serum assayed microbiologically using B. subtilis ATCC 6633.
# [3] = Mouse blood levels of Example 3 following oral and subcutaneous administration; format: in vivo, albino male mice (strain OLAC: MF-1); conditions: read-out: blood conc.; for concentration at 0.5 h: 30 min; for concentration at 0.75 h: 45 min; for concentration at 1 h: 60 min; for concentration at 1.5 h: 90 min
# Description: Mouse blood levels of Example 3 following its oral and subcutaneous administration
# Blood levels were assessed in albino male mice (strain OLAC: MF-1, 18-22 g). The dose was 50 mg/kg administered in a 10% ethanol solution orally and subcutaneously. The mice were killed at intervals up to 90 min and the blood assayed microbiologically using B. subtilis ATCC 6633 in TSA at pH 8.0.
# [4] = Mean serum concentrations in milk weaned piglets after oral administration; format: in vivo; conditions: pig, p.o. 50 mg/kg
# Description: Mean serum concentrations in milk weaned piglets of Example 3 after oral administration at 50 mg/kg
# Blood levels were assessed in milk weaned piglets (mean bodyweight 4.1 kg). The dose was 50 mg/kg administered orally (intubation) as a 25 mg/ml of 25% aqueous ethanol solution. Piglets were bled at intervals up to […] and the serum assayed microbiologically using B. subtilis ATCC 6633.
smiles,measurement,setting,value
"CC(=O)C=C(C)CC1OCC(CC2OC2C(C)C(C)O)C(O)C1O [Example 1, 1-[3R,4R-Dihydroxy-5S-(2S,3S-epoxy-5S-hydroxy-4S-methylhexyl)-2,3,5,6-tetrahydropyran-2-S-yl]-2-methylpent-2E-en-4-one]",MIC,Past. haemolytica PA5,10 µg/mL
same,MIC,M. suipneumoniae Str. 11,5 µg/mL
same,MIC,"Strep. faecalis; Table 1, read-out: MIC",> 100 µg/mL
same,MIC,"Sarcina lutea 8340; Table 1, read-out: MIC",> 100 µg/mL
same,MIC,M. suipneumoniae JF 435,10 µg/mL
same,MIC,E. coli NCTC 10418,> 80 µg/mL
same,MIC,Strep. uberis SPU1,20 µg/mL
same,MIC,E. coli ESS,10 µg/mL
same,MIC,Strep. pyogenes C 2761,100 µg/mL
same,MIC,M. suipneumoniae LABER,5 µg/mL
same,MIC,Bacillus subtilis 6633,5 µg/mL
same,MIC,Strep. dysgalactiae SPD1,80 µg/mL
same,MIC,M. bovis NCTC 10131,0.25 µg/mL
same,MIC,Strep. pyogenes B 2788,50 µg/mL
same,MIC,Strep. pyogenes A 64/848,50 µg/mL
same,MIC,"P. mirabilis 889; Table 1, read-out: MIC",50 µg/mL
same,concentration at 5 min,[1]; oral 50 mg/kg,5900 ng/mL
same,concentration at 10 min,[1]; oral 50 mg/kg,7700 ng/mL
same,concentration at 20 min,[1]; oral 50 mg/kg,4800 ng/mL
same,concentration at 0.5 h,[1]; oral 50 mg/kg,< 3000 ng/mL
same,concentration at 1 h,[1]; oral 50 mg/kg,< 3000 ng/mL
same,concentration at 2 h,[1]; oral 50 mg/kg,< 3000 ng/mL
same,concentration at 4 h,[1]; oral 50 mg/kg,< 3000 ng/mL
same,concentration at 5 min,"[1]; sc, subcutaneous 50 mg/kg",16400 ng/mL
same,concentration at 10 min,"[1]; sc, subcutaneous 50 mg/kg",15300 ng/mL
same,concentration at 20 min,"[1]; sc, subcutaneous 50 mg/kg",9800 ng/mL
same,concentration at 0.5 h,"[1]; sc, subcutaneous 50 mg/kg",5000 ng/mL
same,concentration at 1 h,"[1]; sc, subcutaneous 50 mg/kg",< 3000 ng/mL
same,concentration at 2 h,"[1]; sc, subcutaneous 50 mg/kg",< 3000 ng/mL
same,concentration at 4 h,"[1]; sc, subcutaneous 50 mg/kg",< 3000 ng/mL
same,MIC,S.dublin S7,> 80 µg/mL
"CCC(=O)C=C(C)CC1OCC(CC2OC2C(C)C(C)O)C(O)C1O [Example 2, 1-[3R,4R-Dihydroxy-5S-(2S,3S-epoxy-5-S-hydroxy-4S-methylhexyl)tetrahydropyran-2S-yl]-2-methylhex-2E-en-4-one]",MIC,Past. haemolytica PA5,5 µg/mL
same,MIC,M. suipneumoniae Str. 11,2.5 µg/mL
same,MIC,Strep. faecalis,> 50 µg/mL
same,MIC,Sarcina lutea 8340,> 50 µg/mL
same,MIC,M. suipneumoniae JF 435,5 µg/mL
same,MIC,E. coli NCTC 10418,> 40 µg/mL
same,MIC,Strep. uberis SPU1,5 µg/mL
same,MIC,Strep. pyogenes C 2761,25 µg/mL
same,MIC,M. suipneumoniae LABER,2.5 µg/mL
same,MIC,Bacillus subtilis 6633,2.5 µg/mL
same,MIC,Strep. dysgalactiae SPD1,20 µg/mL
same,MIC,M. bovis NCTC 10131,0.1 µg/mL
same,MIC,Staph. aureus Oxford,0.312 µg/mL
same,MIC,Strep. pyogenes B 2788,25 µg/mL
same,MIC,Strep. pyogenes A 64/848,12.5 µg/mL
same,MIC,P. mirabilis 889,> 50 µg/mL
same,MIC,S.dublin S7,> 40 µg/mL
"CCCCC(=O)C=C(C)CC1OCC(CC2OC2C(C)C(C)O)C(O)C1O [Example 3, 1-[3R,4R-Dihydroxy-5S-(2S,3S-epoxy-5S-hydroxy-4S-methylhexyl)tetrahydropyran-2S-yl]-2-methyloct-2E-en-4-one]",MIC,Past. haemolytica PA5,20 µg/mL
same,MIC,M. suipneumoniae Str. 11,0.5 µg/mL
same,MIC,"Strep. faecalis; Table 1, read-out: MIC",> 100 µg/mL
same,MIC,"Sarcina lutea 8340; Table 1, read-out: MIC",> 100 µg/mL
same,MIC,M. suipneumoniae JF 435,1 µg/mL
same,MIC,E. coli NCTC 10418,> 80 µg/mL
same,MIC,Strep. uberis SPU1,2.5 µg/mL
same,MIC,E. coli ESS,1 µg/mL
same,MIC,Strep. pyogenes C 2761,2.5 µg/mL
same,MIC,M. suipneumoniae LABER,0.5 µg/mL
same,MIC,Bacillus subtilis 6633,0.5 µg/mL
same,concentration at 10 min,"[2]; im, i.m. 50 mg/kg",8500 ng/mL
same,concentration at 20 min,"[2]; im, i.m. 50 mg/kg",7900 ng/mL
same,concentration at 40 min,"[2]; im, i.m. 50 mg/kg",5100 ng/mL
same,concentration at 1 h,"[2]; im, i.m. 50 mg/kg",4300 ng/mL
same,concentration at 2 h,"[2]; im, i.m. 50 mg/kg",1300 ng/mL
same,concentration at 3 h,"[2]; im, i.m. 50 mg/kg",1200 ng/mL
same,concentration at 4 h,"[2]; im, i.m. 50 mg/kg",< 70 ng/mL
same,concentration at 10 min,"[2]; po, p.o. 50 mg/kg",3100 ng/mL
same,concentration at 20 min,"[2]; po, p.o. 50 mg/kg",2000 ng/mL
same,concentration at 40 min,"[2]; po, p.o. 50 mg/kg",1400 ng/mL
same,concentration at 1 h,"[2]; po, p.o. 50 mg/kg",830 ng/mL
same,concentration at 2 h,"[2]; po, p.o. 50 mg/kg",700 ng/mL
same,concentration at 3 h,"[2]; po, p.o. 50 mg/kg",600 ng/mL
same,concentration at 4 h,"[2]; po, p.o. 50 mg/kg",< 70 ng/mL
same,MIC,Strep. dysgalactiae SPD1,10 µg/mL
same,MIC,M. bovis NCTC 10131,0.025 µg/mL
same,concentration at 5 min,[3]; oral 50 mg/kg,9400 ng/mL
same,concentration at 10 min,[3]; oral 50 mg/kg,5100 ng/mL
same,concentration at 20 min,[3]; oral 50 mg/kg,< 1500 ng/mL
same,concentration at 0.5 h,[3]; oral 50 mg/kg,< 1500 ng/mL
same,concentration at 0.75 h,[3]; oral 50 mg/kg,< 1500 ng/mL
same,concentration at 1 h,[3]; oral 50 mg/kg,< 1500 ng/mL
same,concentration at 1.5 h,[3]; oral 50 mg/kg,< 1500 ng/mL
same,concentration at 5 min,"[3]; sc, subcutaneous 50 mg/kg",19800 ng/mL
same,concentration at 10 min,"[3]; sc, subcutaneous 50 mg/kg",15500 ng/mL
same,concentration at 20 min,"[3]; sc, subcutaneous 50 mg/kg",7300 ng/mL
same,concentration at 0.5 h,"[3]; sc, subcutaneous 50 mg/kg",2200 ng/mL
same,concentration at 0.75 h,"[3]; sc, subcutaneous 50 mg/kg",< 1500 ng/mL
same,concentration at 1 h,"[3]; sc, subcutaneous 50 mg/kg",< 1500 ng/mL
same,concentration at 1.5 h,"[3]; sc, subcutaneous 50 mg/kg",< 1500 ng/mL
same,MIC,Staph. aureus Oxford,2.5 µg/mL
same,MIC,Strep. pyogenes B 2788,2.5 µg/mL
same,MIC,"P. mirabilis 889; Table 1, read-out: MIC",100 µg/mL
same,MIC,S.dublin S7,> 80 µg/mL
same,concentration at 10 min,[4]; 10',2100 ng/mL
same,concentration at 20 min,[4]; 20',1900 ng/mL
same,concentration at 40 min,[4]; 40',720 ng/mL
same,concentration at 1 h,[4]; 60',1100 ng/mL
same,concentration at 2 h,[4]; 2 hr,480 ng/mL
same,concentration at 3 h,[4]; 3 hr,370 ng/mL
same,concentration at 4 h,[4]; 4 hr,200 ng/mL
same,concentration at 6 h,[4]; 6 hr,110 ng/mL
same,concentration at 8 h,[4]; 8 hr,< 60 ng/mL
